In patent publication US4175081A, “5-Substituted thiadiazole ureas” (priority 1977, dated 1979):

Experiments:
Barnyard grass (BG) [1] = test: Post-emergence herbicide test; format: in vivo; details: Echinochloa crus-galli, 336 h, 2 lb/acre, two weeks after treatment
Outline: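 Greenhouse pot-grown barnyard grass seedlings sprayed post-emergence at 8 lbs active compound per acre (some at 4 lbs/acre) in 38 gallons per acre, then sub-irrigated. Injury or control rated visually two weeks after treatment.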

Amaranth pigweed (PW) [2] = test: Pre-emergence herbicide test; format: in vivo, Amaranthus retroflexus; details: 336 h, 2 lb/acre, two weeks after treatment
Outline: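 Pigweed was surface-seeded in potted soil one day before spraying at 8 lbs compound per acre, or 4 lbs/acre, in 38 gallons per acre. Pots were kept in the greenhouse with sub-irrigation only; injury or control was rated visually two weeks after treatment.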

[3] = tested on: Yellow foxtail grass (YF); test: Pre-emergence herbicide test; format: in vivo, Setaria glauca; details: Setaria, 336 h, 2 lb/acre, two weeks after treatment
Outline: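 Seeds surface-sown in potting soil one day before spraying; compounds applied pre-emergence at 8 or 4 lbs/acre in 38 gallons/acre spray. Pots held in greenhouse with sub-irrigation only. Injury or control rated visually two weeks after treatment.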

Corn (CN) [4] = test: Post-emergence herbicide test; format: in vivo; details: Zea mays, 336 h, two weeks after treatment
Outline: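 Greenhouse seedlings grown in potting soil and sprayed post-emergence at 8 lbs compound/acre (formulations also made for 4 lbs/acre) in 38 gallons/acre spray volume. Watering by sub-irrigation only. Injury or control rated visually two weeks after treatment.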

Cotton (CT) [5] = test: Pre-emergence herbicide test; format: in vivo, Gossypium hirsutum var. DPL smooth leaf; details: Gossypium hirsutum, 336 h, two weeks after treatment
Outline: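 Crop and weed species seeded one day before treatment, then sprayed pre-emergence at 8 lbs actual compound per acre (also 4 lbs/acre formulations) in 38 gallons per acre. Pots kept in greenhouse with sub-irrigation only; injury or control visually rated two weeks after treatment.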

Bean (BN) [6] = test: Post-emergence herbicide test; format: in vivo, Phaseolus vulgaris var. Black Valentine; details: Phaseolus vulgaris, post-emergence, 336 h, two weeks after treatment
Outline: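 Snapbean (Phaseolus vulgaris var. Black Valentine) was tested post-emergence. Four seeds were sown in 3' plastic pots of potting soil at a depth equal to the seed diameter, then sub-irrigated in greenhouse trays. Planting dates were staggered so plants were sprayed once primary leaves had expanded, with the growing point at the primary leaf nodes.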

Corn (CN) [7] = test: Pre-emergence herbicide test; format: in vivo; details: Zea mays, 336 h, two weeks after treatment
Outline: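 Four corn seeds per pot, sown at seed-diameter depth one day before spraying, got soil surface treatment at 8 lbs/acre (4 lbs/acre formulations also prepared) in 38 gallons/acre. Pots were greenhouse-held with sub-irrigation only. Injury or control was scored visually two weeks after treatment.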

[8] = tested on: Yellow foxtail grass (YF); test: Post-emergence herbicide test; format: in vivo, Setaria glauca; details: Setaria, 336 h, 2 lb/acre, two weeks after treatment
Outline: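 Potted seedlings grown in greenhouse, planting staggered to reach the target stage together, then sprayed post-emergence at 8 lbs actual compound/acre in 38 gallons/acre (4 lbs/acre formulations also prepared). Sub-irrigated afterwards. Injury or control rated visually two weeks after treatment.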

Bean (BN) [9] = test: Pre-emergence herbicide test; format: in vivo, Phaseolus vulgaris var. Black Valentine; details: Phaseolus vulgaris, 336 h, two weeks after treatment
Outline: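 Black Valentine bean was seeded in potting soil one day before spraying. Compound was applied pre-emergence at 8 lbs/acre (also 4 lbs/acre) in 38 gallons per acre. Plants were sub-irrigated and injury or control was rated visually after two weeks.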

Amaranth pigweed (PW) [10] = test: Post-emergence herbicide test; format: in vivo, Amaranthus retroflexus; details: 336 h, 2 lb/acre, two weeks after treatment
Outline: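 Pot-grown pigweed was sprayed post-emergence at the 1–2 true-leaf stage with compound at rates equivalent to 8 lbs per acre (formulations also prepared for 4 lbs/acre) in 38 gallons per acre, using a hood with fixed nozzle. Plants were sub-irrigated in the greenhouse, and injury or control was rated visually two weeks after treatment.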

Crabgrass (CG) [11] = test: Pre-emergence herbicide test; format: in vivo, Digitaria sanquinalis; details: Digitaria sanguinalis, pre-emergence, 336 h, two weeks after treatment
Outline: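 Crabgrass (Digitaria sanquinalis) was surface seeded in 3' plastic pots of potting soil, covered with screened soil, and watered by sub-irrigation in greenhouse trays. Pots were seeded one day before spraying in a hood with a moving belt and fixed nozzle. Plants stayed in the greenhouse on sub-irrigation, and pre-emergence control was rated visually two weeks after treatment.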

Crabgrass (CG) [12] = test: Post-emergence herbicide test; format: in vivo, Digitaria sanquinalis; details: Digitaria sanguinalis, post-emergence, 336 h, two weeks after treatment
Outline: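 Crabgrass (Digitaria sanquinalis) was surface seeded individually in 3' plastic pots of potting soil, covered with screened soil, and watered by sub-irrigation in greenhouse trays. Planting was staggered so seedlings reached the target stage together. Post-emergence sprays were applied in a hood with a removable belt and fixed nozzle, and control was visually rated two weeks after treatment.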

[13] = Acute oral toxicity in rats; details: rat, in vivo
Turnip (TP) [14] = test: Pre-emergence herbicide test; format: in vivo, Brassica sp.; details: Brassica rapa, pre-emergence, 336 h, two weeks after treatment
Outline: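 Turnip (Brassica sp.) seeds were surface sown in 3' plastic pots of potting soil, covered with a thin layer of screened soil, and sub-irrigated in greenhouse trays. Pots were seeded one day ahead of treatment, sprayed pre-emergence under a hood with a fixed nozzle and moving belt, then kept in the greenhouse.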

Johnson grass (JG) [15] = test: Pre-emergence herbicide test; format: in vivo, Sorgum helepense; details: Sorghum halepense, 336 h, two weeks after treatment
Outline: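 Pots seeded one day before spraying; compound applied pre-emergence at 8 lbs/acre (or 4 lbs/acre) in 38 gallons/acre spray volume. Sub-irrigated in greenhouse; injury/control rated visually two weeks after treatment.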

Turnip (TP) [16] = test: Post-emergence herbicide test; format: in vivo, Brassica sp.; details: Brassica rapa, post-emergence, 336 h, two weeks after treatment
Outline: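 A greenhouse post-emergence herbicide test on turnip. Seeds were sown on the surface of potting soil in 3' plastic pots, lightly covered with screened soil and watered from below. Planting was timed so seedlings had 1 or 2 true leaves above the cotyledons at spraying, done in a hood with a fixed nozzle. Control or injury was scored by eye after two weeks.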

Johnson grass (JG) [17] = test: Post-emergence herbicide test; format: in vivo, Sorgum helepense; details: Sorghum halepense, 336 h, two weeks after treatment
Outline: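 Greenhouse pot-grown seedlings sprayed post-emergence at 8 lbs compound per acre (some at 4 lbs/acre) in 38 gallons per acre spray volume. Sub-irrigated thereafter. Injury/control rated visually two weeks after treatment.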

Barnyard grass (BG) [18] = test: Pre-emergence herbicide test; format: in vivo; details: Echinochloa crus-galli, 336 h, two weeks after treatment
Outline: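 Barnyard grass surface-seeded in potting soil and sprayed pre-emergence one day after seeding, at 8 or 4 lb compound/acre in 38 gal/acre spray volume. Pots kept in greenhouse with sub-irrigation only; injury or control rated visually two weeks after treatment.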

Cotton (CT) [19] = test: Post-emergence herbicide test; format: in vivo, Gossypium hirsutum var. DPL smooth leaf; details: Gossypium hirsutum, post-emergence, 336 h, two weeks after treatment
Outline: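 Cotton (Gossypium hirsutum var. DPL smooth leaf) was grown in 3' plastic pots of potting soil, four seeds per pot, planted at a depth equal to the seed diameter and watered by sub-irrigation. At the stage of expanded cotyledons with the first true leaf 1' long, plants were sprayed post-emergence in a hood with a fixed nozzle over a moving belt. Percent control was rated visually two weeks later.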

CNC(=O)Nc1nnc(C(C)(C)C)s1 [Example 86]
pest or weed control at 2241.7 g/ha (Barnyard grass (BG) [1]): 50% | pest or weed control at 2241.7 g/ha (Amaranth pigweed (PW) [2]): 100% | pest or weed control at 2241.7 g/ha [3]: 90% | pest or weed control (Corn (CN) [4]; 2 lb/acre): 40% | pest or weed control at 8966.8 g/ha (Corn (CN) [4]; 8 lb/acre): 100% | pest or weed control at 2241.7 g/ha (Cotton (CT) [5]; 2 lb/acre): 10% | pest or weed control at 8966.8 g/ha (Cotton (CT) [5]; 8 lb/acre): 50% | pest or weed control at 2241.7 g/ha (Bean (BN) [6]; 2 lb/acre): 100% | pest or weed control at 8966.8 g/ha (Bean (BN) [6]; 8 lb/acre): 100% | pest or weed control at 2241.7 g/ha (Corn (CN) [7]; 2 lb/acre): 10% | pest or weed control at 8966.8 g/ha (Corn (CN) [7]; 8 lb/acre): 60% | pest or weed control [8]: 70% | pest or weed control at 2241.7 g/ha (Bean (BN) [9]; 2 lb/acre): 30% | pest or weed control at 8966.8 g/ha (Bean (BN) [9]; 8 lb/acre): 100% | pest or weed control at 2241.7 g/ha (Amaranth pigweed (PW) [10]): 100% | pest or weed control (Crabgrass (CG) [11]; 2 lb/acre): 90% | pest or weed control at 8966.8 g/ha (Crabgrass (CG) [11]; 8 lb/acre): 100% | pest or weed control (Crabgrass (CG) [12]; 2 lb/acre): 50% | pest or weed control at 8966.8 g/ha (Crabgrass (CG) [12]; 8 lb/acre): 80% | LD50 [13]: 2700 mg/kg | pest or weed control at 2241.7 g/ha (Turnip (TP) [14]; 2 lb/acre): 100% | pest or weed control at 8966.8 g/ha (Turnip (TP) [14]; 8 lb/acre): 100% | pest or weed control at 2241.7 g/ha (Johnson grass (JG) [15]; 2 lb/acre): 60% | pest or weed control at 8966.8 g/ha (Johnson grass (JG) [15]; 8 lb/acre): 50% | pest or weed control at 2241.7 g/ha (Turnip (TP) [16]; 2 lb/acre): 100% | pest or weed control at 8966.8 g/ha (Turnip (TP) [16]; 8 lb/acre): 100% | pest or weed control (Johnson grass (JG) [17]; 2 lb/acre): 80% | pest or weed control at 8966.8 g/ha (Johnson grass (JG) [17]; 8 lb/acre): 100% | pest or weed control at 2241.7 g/ha (Barnyard grass (BG) [18]; 2 lb/acre): 60% | pest or weed control at 8966.8 g/ha (Barnyard grass (BG) [18]; 8 lb/acre): 80% | pest or weed control at 2241.7 g/ha (Cotton (CT) [19]; 2 lb/acre): 100% | pest or weed control at 8966.8 g/ha (Cotton (CT) [19]; 8 lb/acre): 100%
